US9763997B2, “Spray drying vancomycin” (Hospira, Inc., priority 2011, dated 2017)
Structures can show the parent of a compound that is named as a salt.

Assays:
[1] = Chromatographic purity (vancomycin B and impurities), analytical HPLC method of the USP vancomycin monograph; type: physicochemical
Procedure: (§1) Batches for stability testing were made using the spray dried formulation of vancomycin HCl (15% by weight), PEG-400 (3% by weight), mannitol (3% by weight) in WFI, with the API sourced from Abbott Laboratories (North Chicago, Ill.). Spray dried batches were stored at 25° C./60% Relative Humidity (RH), 30° C./60% RH, and 40° C./75% RH for three months. The stability data on moisture by Karl Fischer, pH (of the reconstituted solution), reconstitution time and chromatographic purity are presented in Table 7. The chromatographic purity was examined using the analytical HPLC method described in the current USP (United States Pharmacopeia) monograph for vancomycin. The test results for the API lot used to make the spray dried product were also listed for comparison.

[2] = Stability testing of spray dried batches at 25° C./60% RH, 30° C./60% RH, 40° C./75% RH (moisture by Karl Fischer, pH of reconstituted solution, reconstitution time, chromatographic purity); type: physicochemical; settings: Initial
Procedure: as §1
The chromatographic purity of vancomycin B for all samples tested in this study were within USP specifications. All samples were stored at the accelerated conditions of 40° C./75% RH for 3 months and met USP criterion for vancomycin B by chromatographic purity (NLT 80% vancomycin B).

| Structure (SMILES) | Other ([1]; Table 8, other impurities) [%] | N-Demethylvancomycin ([1]; Table 8, tested for impurities) [%] | Vancomycin B ([1]; Table 8, tested for impurities) [%] | % Vancomycin B [2] [%] |
| --- | --- | --- | --- | --- |
| CN[C@H](CC(C)C)C(=O)N[C@H]1C(=O)N[C@@H](CC(N)=O)C(=O)N[C@H]2C(=O)N[C@H]3C(=O)N[C@H](C(=O)N[C@H](C(=O)O)c4cc(O)cc(O)c4-c4cc3ccc4O)[C@H](O)c3ccc(c(Cl)c3)Oc3cc2cc(c3O[C@@H]2O[C@H](CO)[C@@H](O)[C@H](O)[C@H]2O[C@H]2C[C@](C)(N)[C@H](O)[C@H](C)O2)Oc2ccc(cc2Cl)[C@H]1O [API, Vancomycin Hydrochloride] | 4.5 | 0.6 | 94.9 | – |
| CN[C@H](CC(C)C)C(=O)N[C@H]1C(=O)N[C@@H](CC(N)=O)C(=O)N[C@H]2C(=O)N[C@H]3C(=O)N[C@H](C(=O)N[C@H](C(=O)O)c4cc(O)cc(O)c4-c4cc3ccc4O)[C@H](O)c3ccc(c(Cl)c3)Oc3cc2cc(c3O[C@@H]2O[C@H](CO)[C@@H](O)[C@H](O)[C@H]2O[C@H]2C[C@](C)(N)[C@H](O)[C@H](C)O2)Oc2ccc(cc2Cl)[C@H]1O [API Lot 09097619, Vancomycin HCl] | – | – | – | 91.9 |
